# Experimental data taken from the supplement of paper PMC10307832.
# Key:
# Assay in all cases: relative viability (nuclei count vs DMSO), 5 days (fraction); higher = more cells survive
# [1] = system: EPLC-272H
# How it was run: (§1)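 Lung cancer cell lines were seeded in 1536-well plates and dosed by pin tool the next day, with either a single drug or a fixed anchor-drug dose combined with five library-drug doses (not always all listed) spaced in √10 steps. Five days later, one step fixed the cells and stained their nuclei (final 0.05% Triton X-100, 1% formaldehyde, 1 ug/ml Hoechst), and nuclei were counted on 4× images. Relative viability is the nuclei count in treated wells divided by the count in vehicle wells, and each value is the median of duplicate plates.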
# [2] = system: HCC-78
# How it was run: as §1
# [3] = system: CAL-12T
# How it was run: as §1
# [4] = system: HCC-15
# How it was run: as §1
# [5] = system: NCI-H441
# How it was run: as §1
# [6] = system: ABC-1
# How it was run: as §1
# [7] = system: NCI-H3122
# How it was run: as §1
# [8] = system: LXF-289
# How it was run: as §1
# [9] = system: UMC-11
# How it was run: as §1
# [10] = system: NCI-H1975
# How it was run: as §1
# [11] = system: COR-L 105
# How it was run: as §1
# [12] = system: NCI-H1915
# How it was run: as §1
# [13] = system: NCI-H2126
# How it was run: as §1
# [14] = system: ChaGo-K-1
# How it was run: as §1
# [15] = system: NCI-H322M
# How it was run: as §1
# [16] = system: NCI-H358
# How it was run: as §1
# [17] = system: NCI-H2023
# How it was run: as §1
# [18] = system: HOP-62
# How it was run: as §1
# [19] = system: NCI-H2085
# How it was run: as §1
# [20] = system: NCI-H1755
# How it was run: as §1
# [21] = system: EMC-BAC-2
# How it was run: as §1
# [22] = system: NCI-H1666
# How it was run: as §1
smiles,measurement,setting,value
O=c1cc(N2CCOCC2)oc2c(-c3cccc4c3sc3ccccc34)cccc12 + CS(=O)(=O)N1CCN(Cc2cc3nc(-c4cccc5[nH]ncc45)nc(N4CCOCC4)c3s2)CC1 [Pictilisib] (partner 1 µM),relative viability,[1]; first compound 0.01 µM,0.108
same,relative viability,[1]; first compound 0.03162 µM,0.242
same,relative viability,[1]; first compound 0.3162 µM,0.374
same,relative viability,[1]; first compound 1 µM,0.31
same,relative viability,[2]; first compound 0.01 µM,0.209
same,relative viability,[2]; first compound 0.03162 µM,0.204
same,relative viability,[2]; first compound 0.1 µM,0.178
same,relative viability,[2]; first compound 0.3162 µM,0.242
same,relative viability,[2]; first compound 1 µM,0.191
same,relative viability,[3]; first compound 0.01 µM,0.368
same,relative viability,[3]; first compound 0.1 µM,0.485
same,relative viability,[3]; first compound 0.3162 µM,0.551
same,relative viability,[3]; first compound 1 µM,0.326
same,relative viability,[4]; first compound 0.01 µM,0.66
same,relative viability,[4]; first compound 0.03162 µM,0.74
same,relative viability,[4]; first compound 0.1 µM,0.939
same,relative viability,[4]; first compound 0.3162 µM,0.774
same,relative viability,[4]; first compound 1 µM,0.714
same,relative viability,[5]; first compound 0.01 µM,0.561
same,relative viability,[5]; first compound 0.03162 µM,0.483
same,relative viability,[5]; first compound 0.1 µM,0.487
same,relative viability,[5]; first compound 0.3162 µM,0.438
same,relative viability,[5]; first compound 1 µM,0.579
same,relative viability,[6]; first compound 0.01 µM,0.698
same,relative viability,[6]; first compound 0.03162 µM,0.834
same,relative viability,[6]; first compound 0.1 µM,0.745
same,relative viability,[6]; first compound 0.3162 µM,0.888
same,relative viability,[6]; first compound 1 µM,0.755
same,relative viability,[7]; first compound 0.01 µM,0.623
same,relative viability,[7]; first compound 0.03162 µM,0.553
same,relative viability,[7]; first compound 0.1 µM,0.651
same,relative viability,[7]; first compound 0.3162 µM,0.552
same,relative viability,[7]; first compound 1 µM,0.57
same,relative viability,[8]; first compound 0.01 µM,0.877
same,relative viability,[8]; first compound 0.03162 µM,0.815
same,relative viability,[8]; first compound 0.1 µM,0.881
same,relative viability,[8]; first compound 0.3162 µM,0.754
same,relative viability,[8]; first compound 1 µM,0.843
same,relative viability,[9]; first compound 0.01 µM,0.812
same,relative viability,[9]; first compound 0.03162 µM,0.825
same,relative viability,[9]; first compound 0.1 µM,0.773
same,relative viability,[9]; first compound 0.3162 µM,0.819
same,relative viability,[9]; first compound 1 µM,0.796
same,relative viability,[10]; first compound 0.01 µM,0.272
same,relative viability,[10]; first compound 0.03162 µM,0.307
same,relative viability,[10]; first compound 0.1 µM,0.287
same,relative viability,[10]; first compound 0.3162 µM,0.305
same,relative viability,[10]; first compound 1 µM,0.28
same,relative viability,[11]; first compound 0.01 µM,0.347
same,relative viability,[11]; first compound 0.03162 µM,0.394
same,relative viability,[11]; first compound 0.1 µM,0.49
same,relative viability,[11]; first compound 0.3162 µM,0.422
same,relative viability,[11]; first compound 1 µM,0.439
same,relative viability,[12]; first compound 0.01 µM,0.953
same,relative viability,[12]; first compound 0.03162 µM,0.975
same,relative viability,[12]; first compound 0.1 µM,1.08
same,relative viability,[12]; first compound 0.3162 µM,0.99
same,relative viability,[12]; first compound 1 µM,0.909
same,relative viability,[13]; first compound 0.01 µM,0.471
same,relative viability,[13]; first compound 0.03162 µM,0.449
same,relative viability,[13]; first compound 0.1 µM,0.529
same,relative viability,[13]; first compound 0.3162 µM,0.517
same,relative viability,[13]; first compound 1 µM,0.479
same,relative viability,[14]; first compound 0.01 µM,0.648
same,relative viability,[14]; first compound 0.03162 µM,0.791
same,relative viability,[14]; first compound 0.1 µM,0.448
same,relative viability,[14]; first compound 0.3162 µM,0.901
same,relative viability,[14]; first compound 1 µM,0.663
same,relative viability,[15]; first compound 0.01 µM,0.578
same,relative viability,[15]; first compound 0.03162 µM,0.525
same,relative viability,[15]; first compound 0.3162 µM,0.471
same,relative viability,[15]; first compound 1 µM,0.507
same,relative viability,[16]; first compound 0.01 µM,0.339
same,relative viability,[16]; first compound 0.03162 µM,0.353
same,relative viability,[16]; first compound 0.1 µM,0.338
same,relative viability,[16]; first compound 0.3162 µM,0.307
same,relative viability,[16]; first compound 1 µM,0.318
same,relative viability,[17]; first compound 0.01 µM,0.306
same,relative viability,[17]; first compound 0.03162 µM,0.262
same,relative viability,[17]; first compound 0.1 µM,0.266
same,relative viability,[17]; first compound 0.3162 µM,0.275
same,relative viability,[17]; first compound 1 µM,0.245
same,relative viability,[18]; first compound 0.01 µM,0.755
same,relative viability,[18]; first compound 0.03162 µM,0.696
same,relative viability,[18]; first compound 0.1 µM,0.594
same,relative viability,[18]; first compound 0.3162 µM,0.649
same,relative viability,[18]; first compound 1 µM,0.697
same,relative viability,[19]; first compound 0.01 µM,0.469
same,relative viability,[19]; first compound 0.03162 µM,0.467
same,relative viability,[19]; first compound 0.1 µM,0.553
same,relative viability,[19]; first compound 0.3162 µM,0.464
same,relative viability,[19]; first compound 1 µM,0.405
same,relative viability,[20]; first compound 0.01 µM,0.288
same,relative viability,[20]; first compound 0.03162 µM,0.402
same,relative viability,[20]; first compound 0.1 µM,0.457
same,relative viability,[20]; first compound 0.3162 µM,0.458
same,relative viability,[20]; first compound 1 µM,0.395
same,relative viability,[21]; first compound 0.01 µM,0.372
same,relative viability,[21]; first compound 0.03162 µM,0.518
same,relative viability,[21]; first compound 0.1 µM,0.559
same,relative viability,[21]; first compound 0.3162 µM,0.574
same,relative viability,[21]; first compound 1 µM,0.517
same,relative viability,[22]; first compound 0.01 µM,0.443
same,relative viability,[22]; first compound 0.03162 µM,0.483
same,relative viability,[22]; first compound 0.1 µM,0.504
same,relative viability,[22]; first compound 0.3162 µM,0.412
same,relative viability,[22]; first compound 1 µM,0.339
